Measurements from patent US20230100559A1, “Compositions and Methods for Treatment of Disease by Manipulation of Serine Metabolism” (The Trustees of Princeton University, priority 2020, published 2023).
“Also recorded” adds a separate entry of the source. Each block holds one compound with its values, some of them ahead of it.

Assays:
[1] = biological target: T1, SHMT2 (Homo sapiens, UniProt P34897); assay: SHMT2 inhibition (Table 2); format: biochemical
T1 sequence (P34897 30-504): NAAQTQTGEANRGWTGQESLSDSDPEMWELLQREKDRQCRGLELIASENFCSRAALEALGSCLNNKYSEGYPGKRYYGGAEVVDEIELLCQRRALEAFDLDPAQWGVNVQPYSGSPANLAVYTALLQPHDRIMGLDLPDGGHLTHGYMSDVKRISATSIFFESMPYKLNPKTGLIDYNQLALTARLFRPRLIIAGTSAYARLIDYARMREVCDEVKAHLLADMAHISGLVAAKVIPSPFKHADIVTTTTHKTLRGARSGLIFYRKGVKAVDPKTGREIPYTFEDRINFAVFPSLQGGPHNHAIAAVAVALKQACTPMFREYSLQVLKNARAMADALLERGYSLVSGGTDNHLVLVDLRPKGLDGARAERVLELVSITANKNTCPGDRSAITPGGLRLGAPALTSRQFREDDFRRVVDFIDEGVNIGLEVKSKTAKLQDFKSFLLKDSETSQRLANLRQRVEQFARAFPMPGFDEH

[2] = biological target: T2, SHMT1 (Homo sapiens, UniProt P34896); assay: SHMT1 inhibition (Table 2); format: biochemical
T2 sequence (P34896 1-483): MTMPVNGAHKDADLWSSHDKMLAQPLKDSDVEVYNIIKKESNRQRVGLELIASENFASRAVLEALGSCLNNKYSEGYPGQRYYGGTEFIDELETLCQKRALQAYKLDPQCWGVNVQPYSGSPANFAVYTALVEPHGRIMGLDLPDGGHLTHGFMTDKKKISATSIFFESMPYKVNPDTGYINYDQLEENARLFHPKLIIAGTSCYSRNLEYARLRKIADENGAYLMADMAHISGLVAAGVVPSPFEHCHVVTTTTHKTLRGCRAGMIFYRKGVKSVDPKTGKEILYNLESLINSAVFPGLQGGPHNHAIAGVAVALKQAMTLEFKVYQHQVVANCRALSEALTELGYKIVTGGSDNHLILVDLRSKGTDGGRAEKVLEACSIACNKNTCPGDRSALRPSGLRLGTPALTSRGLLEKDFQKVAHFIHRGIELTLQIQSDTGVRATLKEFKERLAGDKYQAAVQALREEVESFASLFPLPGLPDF

[3] = system: HCT116 cells; assay: Cell proliferation assay, HCT116; format: cell-based
Method: (§1) Cell Proliferation Assays. Cells were seeded in seeded in 96 well plates (Corning 3603) for overnight attachment. Medium (with or without drugs) was changed next day, and cell numbers were recorded using Thermofisher CyQUANT kit.

[4] = system: C2C12 cells; assay: C2C12 cells treated with metformin, serine catabolism inhibition; format: cell-based; conditions: C2C12, 5 mM metformin, SHIN1 250 nM
Method: (§2) Adherent cells. Cells were seeded in 6 well plates overnight and then were treated with ETC inhibitors. Serine-free DMEM with 10% dialyzed FBS was supplemented with 400 µM [2,3,3, 2H]serine. Medium was replaced by the isotope tracing medium with corresponding drugs, and cells were incubated for 3 h. Medium was aspirated, and metabolism was quenched with extraction buffer (40:40:20 acetonitrile:methanol: water with 0.5% formic acid; 40 μl of extraction solvent per 1 μl packed cell volume)(Lu et al., 2018). Plates were placed on dry ice for 10 mins, and thereafter the extraction solution was neutralized with 15% NH4HCO3 (70 μl for 800 μl extraction buffer). Cells were then scraped off from plates by using a cell lifter (Corning 3008), transferred into Eppendorf tubes and centrifuged in a benchtop microfuge at maximum speed for 30 min at 4° C. Supernatant was transferred to LC-MS vials for analysis.
as §1

[5] = system: HCT116 xenograft tumors; assay: HCT116 xenograft tumors, metabolomics and [2,3,3-2H]serine tracing; format: in vivo, mice
Method: Mouse Xenograft and allograft. For tumor xenograft tracing experiments, 6- to 7-week-old male CD1/nude mice were injected in the rear flanks with HCT-116 (1×10^6 cells in 100 μL 1:1 PBS:Matrigel). For tumor allograft tracing experiment, 6- to 8-wk-old male C57BL6 mice were injected in the rear flank with KrasLSL.G12D/+x p53R172H/+x PdxCretg/+ pancreatic tumor tissue suspension (200 μL 1:1 DMEM:Matrigel). Jugular vein catheterization surgery was performed when tumor size reached 250 mm3 [volume=1/2 (length×width×height)]. […] Tracing experiments were performed after 1 week of post-surgery monitoring. Tumors were removed and immediately clamped to aluminum foil using Wollenberger clamp and stored in liquid nitrogen. For Long term storage, tissues were kept in −80° C. until future sample preparation.
Metabolites extraction from tissue, tumors and serum. Tissues and tumors were collected from mice and immediately clamped into liquid nitrogen using Wollenberger clamp, tissue were stored in −80° C. Frozen tissues were transferred into 2 ml Eppendorf tubes, which are precooled on dry ice, and pulverized by using cyromill. The resulting tissue powder was weighed (around 10 mg) and mixed well by vortexing in extraction buffer (40 μL extraction buffer per mg tissue). The extraction solution was neutralized with NH4HCO3 as above and centrifuged in a microfuge at maximum speed for 30 min at 4° C. Supernatant was transferred to LC-MS vials for analysis.
IACS-10759 is a potent mitochondrial complex I inhibitor with efficacy in inhibiting tumor growth and inducing apoptosis in models of brain cancer and acute myeloid leukemia. Molina, J. R. et al., Nat. Med. 24, 1036-1046 (2018). […] To check whether circulating serine contributes NADH when respiration is impaired in vivo, [2,3,3-^2H]serine was infused into tumor bearing mice.

[6] = biological target: T3, MTHFD2 (Homo sapiens, UniProt P13995); assay: Enzymatic assay for MTHFD2 with increasing NADH; format: biochemical
T3 construct: purchased Raze Therapeutics (gift, not a catalogue product)
T3 sequence (P13995 36-350): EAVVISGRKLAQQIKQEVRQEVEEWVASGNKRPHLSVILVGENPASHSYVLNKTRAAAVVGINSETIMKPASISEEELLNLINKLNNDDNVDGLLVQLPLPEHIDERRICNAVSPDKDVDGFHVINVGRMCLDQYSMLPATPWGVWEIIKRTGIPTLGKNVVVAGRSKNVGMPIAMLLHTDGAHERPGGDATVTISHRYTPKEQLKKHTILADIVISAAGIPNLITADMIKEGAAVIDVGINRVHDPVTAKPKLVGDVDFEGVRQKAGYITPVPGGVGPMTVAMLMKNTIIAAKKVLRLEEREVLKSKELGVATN
Method: Enzymatic Assay for MTHFD2. NAD (Sigma N0632), NADH (Sigma N8129) and 5, 10-meTHF (Schircks Laboratories, 16.226) solution were freshly prepared each time in water. Reaction mixtures consisted of 50 mM KH2PO4 pH 7.4, 5 mM dithiothreitol (DTT), 5% DMSO, and 0.005 mg/mL MTHFD2 (obtained from Raze Therapeutics), and NAD and NADH as indicated in the Figures. Reaction mixtures were incubated for 5 min at 37° C. before initiation of the reaction by addition of 5,10-meTHF to a final concentration of 0.4 mM using multichannel. The plate was mixed for 5 s in the plate reader (Biotek Synergy HT), and the rate of change in absorbance at 340 nm due to NADH accumulation was recorded over the duration of linear NADH accumulation.
Enzymatic Assay for MDH. NAD and NADH solutions were freshly prepared in water; malate solution was prepared in 50 mM Tris-HCl and adjusted pH to 7.6 with 10 M KOH. […] The plate was mixed for 5 s in the plate reader, and absorbance at 340 nm recorded as above.
Enzymatic assay for PDH and KGDH: Pyruvate dehydrogenase and alpha-ketoglutarate dehydrogenase solutions were freshly prepared to a concentration 0.075 unit/ml with buffer containing 20 mM sodium phosphate and 1 mM MgCl2, pH7.2. […] The plate was mixed for 5 s in the plate reader, and absorbance at 340 nm recorded as above.

[7] = system: HCT116 cells; assay: NAD2H labeling from [2,3,3-2H]serine in cultured cells; format: cell-based
Method: as §2
LC-MS. […] Solvent A is 95:5 water: acetonitrile with 20 mM ammonium acetate and 20 mM ammonium hydroxide at pH 9.4, and solvent B is acetonitrile. The gradient was 0 min, 85% B; 2 min, 85% B; 3 min, 60% B; 9 min, 60% B; 9.5 min, 35% B; 13 min, 5% B; 15.5 min, 5% B; 16 min, 85% B; 20 min, stop run. Injection volume was 15 μL. The Q-Exactive Plus mass spectrometer was operated in negative ion mode scanning from m/z 70-1000 with a resolution (at m/z 200) of 140,000 (AGC target 3e6, Maximum IT 200 ms) (Wang et al., 2019). A second scan from m/z 640-765 with a resolution (at m/z 200) of 35,000 (AGC target 5e5, maximum IT 200 ms) was used to measure NAD(P), NAD(P)H, and their labeling. The purpose of the second scan was to enhance sensitivity for NAD(P)(H) by restricting the range of ions in the orbitrap and to maximize the accuracy of isotope ratios by decreasing the scan range and mass resolution (Su et al., 2017).
Calculation of 2H-serine contribution to malate, aspartate, and NADH: For malate and aspartate, the 2H-labeling fraction was measured directly (fractional size of 2H-peak relative to sum of all peaks, after isotope correction as above). For NADH, the 2H-labeling fraction was measured based on the active hydride labeling (x), which was determined from the labeling pattern of NAD+ and NADH by least square fitting in MATLAB of the observed experimental data (after natural isotope correction) to the below vectors (Liu et al., 2016a).

[8] = system: liver NADH/NAD ratio; assay: Serine/metformin drinking water, liver metabolomics; format: in vivo, mice; conditions: 5% serine or 0.25% metformin drinking water for 2 weeks
[9] = IACS-10759 10 mg/kg gavage every day for 7 days, CD-1 nude mice
[10] = cultured cells, complex I inhibitor added

IC50 [1]: 1190 nM
IC50 [2]: 593 nM
SMILES: Cc1n[nH]c2c1C(c1cc(Cl)cc(Cl)c1)(C1CCC1)C(C#N)=C(N)O2 (centres unmarked) [HK-10]

IC50 [1]: 131 nM
IC50 [2]: 67 nM
SMILES: Cc1n[nH]c2c1C(c1cc(Cl)cc(Cl)c1)(C(C)C)C(C#N)=C(N)O2 (centres unmarked) [HK-14]

IC50 [1]: 35 nM
IC50 [2]: 20 nM
SMILES: Cc1n[nH]c2c1C(c1cc(Cl)cc(C(F)(F)F)c1)(C(C)C)C(C#N)=C(N)O2 (centres unmarked) [HK-15]

IC50 [1]: 66 nM
IC50 [2]: 13 nM
SMILES: Cc1n[nH]c2c1C(c1cc(N3CCCC3)cc(C(F)(F)F)c1)(C(C)C)C(C#N)=C(N)O2 (centres unmarked) [HK-X1]

SMILES: Cc1[nH]nc2c1C(c1cc(CO)cc(-c3ccccc3)c1)(C(C)C)C(C#N)=C(N)O2 (centres unmarked) [HK-X2 (SHIN1)]
cell proliferation / growth ([3]; HCT116, in the presence of metformin): enhances growth; also recorded: augmented proliferation
cell proliferation / growth ([3]; HCT116, in the presence of phenformin or rotenone): enhances growth; also recorded: augmented proliferation
cell proliferation ([3]; HCT116, standard tissue culture conditions): decreased cell proliferation
cell growth ([3]; HCT116 WT, hypoxia (0.5% O2), low doses of SHIN1): modestly increased cell growth
aspartate [4]: enhances aspartate
cell growth / tolerance of metformin [4]: restores; also recorded: better tolerated metformin

SMILES: Cc1nc(-c2nc(-c3ccc(OC(F)(F)F)cc3)no2)nn1Cc1cccc(N2CCC(S(C)(=O)=O)CC2)c1 [IACS-10759]
NADH/NAD ratio of tumors [5, 9]: increased
intra-tumor lactate level [5, 9]: increased
2H-malate labeling from [2,3,3-2H]serine in tumors ([5]; IACS-10759 10 mg/kg, 2.5 hours serine infusion): increased

NADH level up to which MTHFD2 maintains full activity ([6]; NADH as competitive (product) inhibitor, adequate NAD): up to 200 μM
sensitivity of MTHFD2 to NADH, less than PDH, KGDH and malate dehydrogenase ([6]; product inhibition by NADH): at least 10 fold
SMILES: NC(=O)C1=CN([C@@H]2O[C@H](COP(=O)(O)OP(=O)(O)OC[C@H]3O[C@@H](n4cnc5c(N)ncnc54)[C@H](O)[C@@H]3O)[C@@H](O)[C@H]2O)C=CC1 [NADH]

SMILES: N#C/C(=C\c1cn(-c2ccccc2)c2ccccc12)C(=O)O [UK5099]
block of the pyruvate effect (rescue of NADH phenotypes) ([7]; metformin-treated cells with pyruvate): does not block; also recorded: not blocked

SMILES: CC1=C(C)C(=O)C(C)=C(C)C1=O [duroquinone]
fractional contribution of serine to NADH ([7]; added to metformin-treated cells (HCT116, 5 mM metformin)): decreased

SMILES: CN(C)C(=N)N=C(N)N [metformin, reference compound]
NADH/NAD ratio in liver [8]: increased; also recorded: significantly increase
fractional contribution of serine to NADH [7, 10]: dramatically elevated

SMILES: [H]/N=C(/N)N/C(=N/[H])NCCc1ccccc1 [phenformin]
fractional contribution of serine to NADH [7, 10]: dramatically elevated

SMILES: N[C@@H](CO)C(=O)O [serine]
NADH/NAD ratio in liver [8]: significantly increase
NADH/NAD ratio in liver ([8]; listed as Serine): increased
